How the values were obtained:
[1] = biological target: T1, Human-Plazenta-α-Galactosidase A (Homo sapiens, UniProt P06280); assay: Cleavage of the prodrug by human placenta α-galactosidase A (HPLC analysis); type: biochemical; details: placenta alpha-galactosidase a, 0.03 U/ml α-Galactosidase A, Phosphat-Puffer pH 5, 37 °C, dark, extrapolated value, read-out: Halbwertszeit der Spaltung (converted)
T1 construct: der aus Human-Plazenta isolierten α-Galactosidase A; from tissue; host or cells: human placenta
T1 sequence (P06280 32-429): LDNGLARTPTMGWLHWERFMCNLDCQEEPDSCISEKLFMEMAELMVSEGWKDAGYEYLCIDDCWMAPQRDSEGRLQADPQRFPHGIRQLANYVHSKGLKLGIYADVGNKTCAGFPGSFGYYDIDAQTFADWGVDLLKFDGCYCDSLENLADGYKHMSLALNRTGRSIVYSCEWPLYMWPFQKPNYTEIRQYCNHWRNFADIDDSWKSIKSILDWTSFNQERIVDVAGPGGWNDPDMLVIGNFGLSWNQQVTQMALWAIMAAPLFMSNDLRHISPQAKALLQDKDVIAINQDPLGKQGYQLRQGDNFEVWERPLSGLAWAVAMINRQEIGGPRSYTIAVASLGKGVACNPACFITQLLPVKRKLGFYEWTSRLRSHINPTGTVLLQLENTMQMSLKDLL
Method: (§1) Spaltung von 14-O-α-D-Galacto-hexo-pyranosyl-doxorubicin (Verbindung 10) durch Human-Plazenta-α-Galactosidase A 0.5 mg der Ausgangsverbindung wurden in 0.5 ml Phosphat-Puffer, pH 5, enthaltend 0.03 U/ml der aus Human-Plazenta isolierten α-Galactosidase A gelöst und bei 37 °C im Dunklen inkubiert. Nach verschiedenen Inkubationszeiten wurden Proben des Inkubationsansatzes entnommen und direkt mittels Hochdruckflüssigkeitschromatographie analysiert (Säule: Nucleosil 100 (RP 18, 5 µm Teilchendurchmesser, 125 x 4.6 mm; Mobile Phase: Gradient aus Lösung A und B: 0 min - 20% A, 10 min - 30% A, 15 min - 30% A, Lösung A = 100% Acetonitril, Lösung B = 0.02 m Phosphat-Puffer pH 3.0; Flußrate: 1 ml/min; Detektion: Fluoreszenz, Ex 495 nm, Em 560 nm). Die Retentionszeit der Ausgangsverbindung betrug unter diesen Chromatographiebedingungen 9.0 min. Die während der Inkubation entstehende Verbindung wies eine mit Adriamycin identische Retentionszeit von 12.6 min auf.
(§2) Die Halbwertszeit der Spaltung betrug unter dem beschriebenen Bedingungen ca. 54 h (extrapolierter Wert). Bei der Inkubation der Ausgangsverbindung in enzymfreier Pufferlösung blieb die Verbindung über diesen Zeitraum stabil.

[2] = biological target: T2, Kaffeebohnen-α-Galactosidase (Coffea arabica, UniProt Q42656); assay: Cleavage of the prodrug by coffee bean α-galactosidase (HPLC analysis); type: biochemical; details: coffee bean alpha-galactosidase; 0.03 U/ml Kaffeebohnen-α-Galactosidase (Sigma), Phosphat-Puffer pH 5, 37 °C; read-out: Halbwertszeit der Spaltung
T2 construct: purchased Sigma
T2 sequence (Q42656 16-378): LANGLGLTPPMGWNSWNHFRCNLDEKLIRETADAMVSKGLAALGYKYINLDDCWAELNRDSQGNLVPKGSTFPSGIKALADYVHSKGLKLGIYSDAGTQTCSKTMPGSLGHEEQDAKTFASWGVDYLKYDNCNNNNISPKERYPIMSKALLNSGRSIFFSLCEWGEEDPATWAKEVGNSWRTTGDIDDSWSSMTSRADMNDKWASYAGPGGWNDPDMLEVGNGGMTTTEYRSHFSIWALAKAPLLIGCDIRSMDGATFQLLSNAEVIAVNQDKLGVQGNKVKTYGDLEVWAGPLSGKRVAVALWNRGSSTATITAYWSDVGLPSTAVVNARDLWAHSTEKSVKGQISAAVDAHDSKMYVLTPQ
Method: as §1
Spaltung von 14-O-α-D-Galacto-hexo-pyranosyl-doxorubicin (Verbindung 10) durch Kaffebohnen-α-Galactosidase Die Ausgangsverbindung wurde unter den gleichen wie in Beispiel 11 beschriebenen Bedingungen in Gegenwart von 0.03 U/ml Kaffeebohnen-α-Galactosidase (Sigma) inkubiert. Die Halbwertszeit der Spaltung betrug in Gegenwart des Enzyms ca. 20 min.

[3] = Stability of the prodrug on incubation in enzyme-free buffer; type: physicochemical; details: Phosphat-Puffer pH 5, 37 °C, without enzyme, over the same period (ca. 54 h)
Method: as §1, §2

## COc1cccc2c1C(=O)c1c(O)c3c(c(O)c1C2=O)C[C@@](O)(C(=O)CO[C@H]1O[C@H](CO)[C@H](O)[C@H](O)[C@H]1O)C[C@@H]3O[C@H]1C[C@H](N)[C@H](O)[C@H](C)O1 [Verbindung 10, 14-O-α-D-Galactohexopyranosyl-doxorubicin]
[1]
  half-life: ~54 h
[2]
  half-life: ~0.333 h
[3]
  Stability in enzymfreier Pufferlösung: stabil

Reference: patent EP0441218A2, “Anthracycline-glycosyl prodrugs, process for their preparation and their use in combination with functionalised tumour-specific enzyme conjugates” (BEHRINGWERKE Aktiengesellschaft, priority 1990, dated 1991)
